Literature values, collected in patent US6004792A, “Human lysophospholipase” (Incyte Pharmaceuticals, Inc., priority 1998, dated 1999).

Target: T1, monomeric 24 kD lysophospholipase (LPL) from rat liver (GI 1552244; SEQ ID NO:3) (Rattus norvegicus, UniProt P70470)
T1 construct: isolated a monomeric, 24 kD LPL from rat liver; host or cells: rat liver (enzyme isolated from tissue, Sugimoto et al. 1996)
Conditions: substrate 1-palmitoyl-glycero-3-phosphocholine

T1 sequence (P70470 whole entry): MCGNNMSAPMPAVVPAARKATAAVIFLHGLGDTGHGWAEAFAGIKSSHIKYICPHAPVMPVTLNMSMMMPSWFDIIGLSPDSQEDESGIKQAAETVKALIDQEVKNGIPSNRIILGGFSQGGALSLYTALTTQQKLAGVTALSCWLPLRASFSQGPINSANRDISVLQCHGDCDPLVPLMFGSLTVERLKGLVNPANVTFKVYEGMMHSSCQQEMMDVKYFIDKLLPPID

For `CCCCCCCCCCCCCCCC(=O)OCC(O)COP(=O)([O-])OCC[N+](C)(C)C` (stereo not shown) [1-palmitoyl-glycero-3-phosphocholine], the Vmax is listed as 1.55 µM/min/mg.
